These results are taken from US9981899B2, “Composition containing reduced coenzyme Q10 and production method thereof” (KANEKA CORPORATION, priority 2006, dated 2018).

Each structure is given as a SMILES string.

The nature of data set [1]: Oxidative stability: residual ratio of reduced coenzyme Q10 after preservation at 40° C. in the air in light shading for 30 days. It is filed as physicochemical. The protocol:
The reduced coenzyme Q10 residual ratio (%) after preservation at 40° C. in the air for 30 days under shading conditions of the particulate composition containing reduced coenzyme Q10 of the present invention is not particularly limited. It is not less than about 50 wt %, preferably not less than about 60 wt %, more preferably not less than about 70 wt %, still more preferably not less than about 80 wt %, particularly preferably not less than about 90 wt %.
The purity of reduced coenzyme Q10 and the weight ratio (%) of reduced coenzyme Q10 were determined by the following HPLC analysis (weight ratio (%)={reduced coenzyme Q10/(oxidized coenzyme Q10+reduced coenzyme Q10)}×100).

Data set [2] in a line: Crystallinity of reduced coenzyme Q10 in the particulate composition by DSC. It is filed as physicochemical. To be noted: after preservation at 25° C. in the air for 30 days; measured/theoretical melting calorie. The protocol: The crystallinity of reduced coenzyme Q10 in the obtained particulate composition was determined by the following DSC (differential scanning calorimeter [EXSTAR6000 manufactured by Seiko Instruments Inc.]) analysis after preservation at 25° C. in the air for 30 days. The particulate compositions obtained in Examples and Comparative Examples were preserved under the above-mentioned given conditions, 10 mg thereof was taken in an aluminum pan and the temperature was elevated from 15° C. to 70° C. at a temperature rise rate of 5° C./min, during which the crystal melting calorie was measured. The crystallinity was calculated according to the following formula using the theoretical melting calorie determined from the content of reduced coenzyme Q10 in the particulate composition and the data of melting calorie actually measured by DSC. Crystallinity (%)=(measured melting calorie/theoretical melting calorie)×100 (Volume Average Particle Size)
For orientation: In DSC, transitions show as peaks or steps in heat flow.

With `COc1c(O)c(C)c(C/C=C(\C)CC/C=C(\C)CC/C=C(\C)CC/C=C(\C)CC/C=C(\C)CC/C=C(\C)CC/C=C(\C)CC/C=C(\C)CC/C=C(\C)CCC=C(C)C)c(O)c1OC` [Comparative Example 1, reduced coenzyme Q10], the “residual ratio of the reduced coenzyme Q10” value in data set [1] came to 28%. In addition, the “crystallinity measured by DSC” value in data set [2] is given as 100%.
